Reference: patent publication US20100099113A1, “MINIMIZED SMALL PEPTIDES WITH HIGH AFFINITY FOR FACTOR VIII AND FACTOR VIII-LIKE PROTEINS” (Technische Universitat Muenchen, priority 2006, published 2010)
Where no end group is shown, it is not given here. [ ]: non-standard residue; d: D form. Bpa = N[C@@H](Cc1ccc(C(=O)c2ccccc2)cc1)C(=O)O; 2Nal = N[C@@H](Cc1ccc2ccccc2c1)C(=O)O; Abu = CC[C@H](N)C(=O)O

Columns and labels:
[1] = target: T1, ReFacto (Homo sapiens, UniProt P00451, DEL763-1656); experiment: Binding of ReFacto to peptide-coated resin; conditions: peptide immobilized on resin; Table 1
T1 construct: purchased Wyeth-Ayerst Pharmacia and Upjohn; host or cells: CHO cells
T1 sequence (P00451 with tags, fused parts or gaps DEL763-1656 limits assumed): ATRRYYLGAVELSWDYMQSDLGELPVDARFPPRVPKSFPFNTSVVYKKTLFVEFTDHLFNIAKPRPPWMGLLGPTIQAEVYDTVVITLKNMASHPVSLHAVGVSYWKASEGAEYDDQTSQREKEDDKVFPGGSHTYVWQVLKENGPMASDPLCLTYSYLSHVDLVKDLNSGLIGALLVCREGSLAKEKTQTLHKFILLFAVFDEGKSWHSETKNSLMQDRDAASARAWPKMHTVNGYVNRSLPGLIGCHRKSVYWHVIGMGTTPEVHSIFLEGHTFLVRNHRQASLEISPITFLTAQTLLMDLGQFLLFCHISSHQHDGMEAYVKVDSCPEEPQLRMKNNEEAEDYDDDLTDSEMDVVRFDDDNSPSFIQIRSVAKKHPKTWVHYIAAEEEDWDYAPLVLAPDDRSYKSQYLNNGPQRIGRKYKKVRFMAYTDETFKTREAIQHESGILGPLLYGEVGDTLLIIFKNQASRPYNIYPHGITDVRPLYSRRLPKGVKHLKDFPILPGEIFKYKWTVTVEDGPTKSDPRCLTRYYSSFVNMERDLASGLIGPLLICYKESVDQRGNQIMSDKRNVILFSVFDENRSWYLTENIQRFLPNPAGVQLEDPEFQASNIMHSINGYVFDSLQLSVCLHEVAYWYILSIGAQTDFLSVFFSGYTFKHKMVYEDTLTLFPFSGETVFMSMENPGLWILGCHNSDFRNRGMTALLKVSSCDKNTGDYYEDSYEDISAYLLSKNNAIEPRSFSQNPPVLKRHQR
T1 sequence (P00451 1668-2351 limits assumed): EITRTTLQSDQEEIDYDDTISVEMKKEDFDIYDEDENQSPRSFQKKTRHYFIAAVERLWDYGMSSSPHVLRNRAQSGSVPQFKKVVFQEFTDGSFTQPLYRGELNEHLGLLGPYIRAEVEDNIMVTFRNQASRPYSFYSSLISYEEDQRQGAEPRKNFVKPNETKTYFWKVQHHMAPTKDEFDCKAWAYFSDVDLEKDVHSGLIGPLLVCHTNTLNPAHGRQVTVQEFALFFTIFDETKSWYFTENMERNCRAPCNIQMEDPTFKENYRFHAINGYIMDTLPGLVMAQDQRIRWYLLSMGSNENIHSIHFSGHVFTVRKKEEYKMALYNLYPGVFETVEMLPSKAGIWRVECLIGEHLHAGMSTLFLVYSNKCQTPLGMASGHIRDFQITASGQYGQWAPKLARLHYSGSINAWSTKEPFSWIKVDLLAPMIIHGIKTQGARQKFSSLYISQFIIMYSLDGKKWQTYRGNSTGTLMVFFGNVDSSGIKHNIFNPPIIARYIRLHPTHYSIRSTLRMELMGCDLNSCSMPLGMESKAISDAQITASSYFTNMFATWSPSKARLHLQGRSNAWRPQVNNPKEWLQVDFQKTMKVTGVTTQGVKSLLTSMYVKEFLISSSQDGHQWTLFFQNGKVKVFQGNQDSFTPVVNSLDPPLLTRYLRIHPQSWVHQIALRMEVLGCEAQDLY

[2] = target: T2, Plasma-derived (pd-) human Factor VIII (Homo sapiens, UniProt P00451); experiment: Binding of 125I-labeled pd-FVIII to peptide-coated Toyopearl resin (micro-beads assay); conditions: peptide immobilized on Toyopearl AF-Epoxy-650M resin; 125I-pd-FVIII, 2 hours room temperature; percent of maximal achievable binding (anti-FVIII Mab 8860-coated resin); mean ± SD of four determinations
T2 construct: from tissue; host or cells: human blood plasma (FVIII concentrate)
T2 sequence (P00451 20-1667 limits assumed, one chain of several): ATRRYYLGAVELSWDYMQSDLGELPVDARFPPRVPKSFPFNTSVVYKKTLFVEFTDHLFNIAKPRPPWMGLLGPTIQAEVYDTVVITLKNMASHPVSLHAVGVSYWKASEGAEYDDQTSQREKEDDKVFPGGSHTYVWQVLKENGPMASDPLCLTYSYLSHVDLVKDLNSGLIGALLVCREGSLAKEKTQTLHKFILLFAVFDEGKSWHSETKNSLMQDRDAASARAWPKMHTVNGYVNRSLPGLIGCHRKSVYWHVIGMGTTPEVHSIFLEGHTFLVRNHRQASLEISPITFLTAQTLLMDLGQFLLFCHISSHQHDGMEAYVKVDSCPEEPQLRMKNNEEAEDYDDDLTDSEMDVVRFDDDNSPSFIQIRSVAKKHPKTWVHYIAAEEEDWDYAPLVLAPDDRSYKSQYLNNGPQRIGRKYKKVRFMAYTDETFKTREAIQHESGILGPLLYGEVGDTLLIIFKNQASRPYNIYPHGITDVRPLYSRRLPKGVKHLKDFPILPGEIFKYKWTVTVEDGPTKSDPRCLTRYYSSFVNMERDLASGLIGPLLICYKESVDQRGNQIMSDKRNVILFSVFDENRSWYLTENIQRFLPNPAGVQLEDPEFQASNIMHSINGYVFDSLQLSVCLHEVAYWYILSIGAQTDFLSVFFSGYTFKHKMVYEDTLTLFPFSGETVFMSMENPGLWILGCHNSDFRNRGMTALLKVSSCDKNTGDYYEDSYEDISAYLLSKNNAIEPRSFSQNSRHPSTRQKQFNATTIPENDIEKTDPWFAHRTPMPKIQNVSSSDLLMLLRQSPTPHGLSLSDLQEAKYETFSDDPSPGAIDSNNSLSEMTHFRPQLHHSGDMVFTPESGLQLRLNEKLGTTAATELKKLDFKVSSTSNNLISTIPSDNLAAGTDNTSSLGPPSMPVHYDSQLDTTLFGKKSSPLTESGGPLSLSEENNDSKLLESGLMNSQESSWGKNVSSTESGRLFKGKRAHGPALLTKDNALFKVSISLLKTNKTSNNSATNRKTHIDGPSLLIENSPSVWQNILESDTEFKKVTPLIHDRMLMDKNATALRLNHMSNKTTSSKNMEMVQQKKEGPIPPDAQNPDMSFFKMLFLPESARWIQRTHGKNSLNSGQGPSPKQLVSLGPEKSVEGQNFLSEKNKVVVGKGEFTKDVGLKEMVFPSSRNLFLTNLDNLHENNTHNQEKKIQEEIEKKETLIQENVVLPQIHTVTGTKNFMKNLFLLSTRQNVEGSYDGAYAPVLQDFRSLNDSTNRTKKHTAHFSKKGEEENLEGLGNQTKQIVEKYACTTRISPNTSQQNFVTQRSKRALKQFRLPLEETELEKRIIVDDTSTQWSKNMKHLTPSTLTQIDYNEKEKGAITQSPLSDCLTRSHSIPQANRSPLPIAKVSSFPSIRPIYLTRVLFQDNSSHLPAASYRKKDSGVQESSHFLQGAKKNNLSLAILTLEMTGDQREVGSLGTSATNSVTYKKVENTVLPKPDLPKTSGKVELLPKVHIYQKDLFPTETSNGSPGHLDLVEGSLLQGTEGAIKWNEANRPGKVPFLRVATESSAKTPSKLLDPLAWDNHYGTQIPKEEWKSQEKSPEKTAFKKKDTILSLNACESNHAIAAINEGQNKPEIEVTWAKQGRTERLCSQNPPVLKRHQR
Method: Peptides S1 to S84 were immobilized on the Toyopearl AF-Epoxy-650M resin (Tosoh Biosep) as described by Jungbauer et al. For immobilization, 2.5 mg of each peptide was dissolved in 0.25 mL of the immobilization buffer (0.2 M sodium bicarbonate, pH 10.3), and 0.036 g of the dry resin powder (corresponding to 0.125 mL of swollen resin) was added, followed by incubation of the mixture with gentle rotation for 48 hours. Upon incubation for 48 hours the resin was washed once with immobilization buffer, once with 1 M NaCl and then 3 times with binding buffer, and binding of ^125I-labeled pd-FVIII to the peptide-coated and control resin was tested. The coupling density of each peptide in each of the reported experiments was as mentioned in Table 1. The control 0.25 mL portion of the resin was similarly treated in parallel experiment in the absence of peptide and was subsequently used as a control (designated as Background) in ^125I-pd-FVIII binding experiments. ^125I-pd-FVIII Bound/Background ratios were calculated as the amount of ^125I-pd-FVIII, bound to an immobilized peptide, divided by that bound to uncoated control resin, prepared as described above. This ratio represents a Signal/Noise ratio for the micro-beads assay, since ^125I-pd-FVIII bound to peptide represents the signal value and ^125I-pd-FVIII bound to peptide-uncoated resin represents the background (noise) value.
Plasma-derived (pd-) human Factor VIII (FVIII) was purified from concentrate by immunoaffinity chromatography on an anti-FVIII monoclonal antibody column followed by subsequent concentration of pd-FVIII by ion-exchange chromatography using Resource Q HR5/5 column.
The resin with immobilized peptides was washed in the binding buffer (0.01 M Hepes, 0.1 M NaCl, 5 mM CaCl2, 0.01% Tween-80). Subsequently, the resin was diluted in the binding buffer as 1:7 slurry and aliquoted into Eppendorf tubes (40 μL per tube). ^125I-pd-FVIII (100000 cpm in 10 μL) was added to the tubes and the volume of the mixture was adjusted to 100 μL by adding 50 μL of the binding buffer containing 4% BSA to give a 2% final concentration of BSA. After 2 hours of incubation at room temperature on a rotator, the samples were washed 4 times in the binding. After each wash the tubes were centrifuged at 5000 rpm for 1 min in an Eppendorf microcentrifuge, supernatant was discarded, and the resin was re-suspended in the washing buffer, followed by centrifugation under the same conditions. After four washes the tubes with pellet without supernatant were counted for radioactivity. The resin without peptide was processed similarly to account for non-specific pd-FVIII binding to tubes and resin itself, and the radioactivity in this control tube was considered as a background value. Since ^125I-pd-FVIII contains the some fraction damaged during radiolabeling, binding was calculated as a percent of maximal achievable binding, determined in separate experiment with anti-FVIII Mab 8860-coated resin.
All the measurements were performed in duplicates. Each experiment was performed using two independently prepared immobilized peptide samples. The data presented in each table are the mean values of the four determinations: duplicate determination in the two assays performed with beads on which peptides were independently immobilized on the different days. The value of standard deviation of the above quadruplicate determinations (duplicate determinations in two independent experiments) were typically less than 10% of the measured values of ^125I-pd-FVIII binding to peptides.

| Substance | % Binding ReFacto [1] | % Binding pdFVIII [2] |
| --- | --- | --- |
| Abu-W-E-Y-C [S50] | 36.4 ± 2.4% | 35.3 ± 2.4% |
| Ac-E-S-W-E-Y-C (Ac-ESWEYC) [S45] | 38.4 ± 2.6% | 36.4 ± 2.6% |
| C-S-W-E-Y [S20] | 45.3 ± 3.1% | 48.6 ± 3.3% |
| E-S-W-E-Y-C (ESWEYC) [S44] | 35.1 ± 2.4% | 38.0 ± 2.4% |
| S-W-D-Y-C [S43] | 35.6 ± 2.6% | 48.2 ± 2.8% |
| S-W-E-Phg-C [S53] | 42.5 ± 2.8% | 38.1 ± 2.7% |
| T-W-E-Y-C [S46] | 25.1 ± 1.9% | 37.0 ± 2.1% |
| Y-H-S-W-D-Y-C (YHSWDYC) [S48] | 40.2 ± 2.9% | 52.0 ± 3.1% |
| Y-H-S-W-E-Bip(4,4′)-C [S55] | 36.2 ± 2.1% | 51.5 ± 2.9% |
| Y-H-T-W-D-Y-C (YHTWDYC) [S52] | 51.2 ± 3.4% | 47.5 ± 3.3% |
| Y-H-T-W-E-Y-C (YHTWEYC) [S47] | 38.9 ± 2.8% | 47.5 ± 2.9% |
| YF[Abu]WEYC [S36] | 53.8 ± 5.0% | 62.0 ± 4.2% |
| YF[Abu]WEYC [S49] | 54.4 ± 3.8% | 64.5 ± 4.0% |
| YHSWE[2Nal]C [S56] | 51.5 ± 3.4% | 51.5 ± 3.4% |
| YHSWE[Bpa]C [S38] | 59.2 ± 4.8% | 52.3 ± 4.1% |
| YHS[2Nal]EYC [S42] | 47.8 ± 2.1% | 60.3 ± 2.2% |
| YHS[Bpa]E[Bpa]C [S51] | 49.3 ± 3.5% | 63.4 ± 3.8% |
| YH[Abu]WEYC [S54] | 44.4 ± 2.8% | 32.3 ± 2.6% |
